The source of these data is PMC3537229 (European journal of pharmacology, 2012).

Data set [1] has as its target T1, NET (Rattus norvegicus, UniProt Q63380). The settings on record: percentage of maximal release response; ref Baumann et al. (2012b); cited from earlier work.
In data set [2] the target is T2, SERT (Rattus norvegicus, UniProt P31652). The settings on record: percentage of maximal release response; ref Baumann et al. (2012b); cited from earlier work.
For data set [3], the system named is mice. The note with it: mice, 1, 3 or 10 mg/kg, i.p.; ref Robinson et al. (2012); cited from earlier work.
Data set [4] has as its target T3, DAT (Rattus norvegicus, UniProt P23977). The data set can be described thus: Inhibition of [3H]dopamine uptake in rat brain synaptosomes. The format is biochemical.
In data set [5] the target is T1, NET. The data set can be described thus: Inhibition of [3H]norepinephrine uptake in rat brain synaptosomes. The format is biochemical.
The target of data set [6] is T2, SERT. The data set can be described thus: Inhibition of [3H]serotonin uptake in rat brain synaptosomes. It is filed as biochemical.
Data set [7] deals with T3, DAT. The data set can be described thus: Release of [3H]MPP+ via DAT in rat brain synaptosomes. The format is biochemical.
Data set [8] deals with T1, NET. The data set can be described thus: Release of [3H]MPP+ via NET in rat brain synaptosomes. The format is biochemical.
The target in data set [9] is T2, SERT. The data set can be described thus: Release of [3H]serotonin via SERT in rat brain synaptosomes. The format is biochemical.
Data set [10] has as its system rats. The settings on record: cited from earlier work.
In data set [11] the target is T3, DAT. The settings on record: percentage of maximal release response; ref Baumann et al. (2012b); cited from earlier work.
Data set [12] relates to extracellular levels of dopamine and serotonin in rat nucleus accumbens. The settings on record: i.v. injection, 0.3 or 1.0 mg/kg; ref Baumann et al., 2012a; cited from earlier work.
Data set [13] relates to mice. The note with it: ref Angoa-Perez et al., 2012, Lopez-Arnau et al., Marusich et al.; cited from earlier work.
Data set [14] relates to mice. The note with it: 30 mg/kg, i.p.; ref Lisek et al., 2012; cited from earlier work.
For data set [15], the system named is rats. The settings on record: 30 mg/kg, i.p.; ref Lisek et al., 2012; cited from earlier work.
The conditions of data set [16]: ref Kehr et al., 2011; cited from earlier work.

Structures are written as SMILES. Where two headings read alike, the source gives them in different places.

For orientation: IC50 means the concentration at which inhibition is half-maximal. Read a low IC50 as inhibition by little substance. Usually EC50 stands for the concentration giving half of the maximal effect. A word on the Emax: it is the size of the effect at its maximum, as opposed to the concentration needed.

T3 sequence (P23977 whole entry): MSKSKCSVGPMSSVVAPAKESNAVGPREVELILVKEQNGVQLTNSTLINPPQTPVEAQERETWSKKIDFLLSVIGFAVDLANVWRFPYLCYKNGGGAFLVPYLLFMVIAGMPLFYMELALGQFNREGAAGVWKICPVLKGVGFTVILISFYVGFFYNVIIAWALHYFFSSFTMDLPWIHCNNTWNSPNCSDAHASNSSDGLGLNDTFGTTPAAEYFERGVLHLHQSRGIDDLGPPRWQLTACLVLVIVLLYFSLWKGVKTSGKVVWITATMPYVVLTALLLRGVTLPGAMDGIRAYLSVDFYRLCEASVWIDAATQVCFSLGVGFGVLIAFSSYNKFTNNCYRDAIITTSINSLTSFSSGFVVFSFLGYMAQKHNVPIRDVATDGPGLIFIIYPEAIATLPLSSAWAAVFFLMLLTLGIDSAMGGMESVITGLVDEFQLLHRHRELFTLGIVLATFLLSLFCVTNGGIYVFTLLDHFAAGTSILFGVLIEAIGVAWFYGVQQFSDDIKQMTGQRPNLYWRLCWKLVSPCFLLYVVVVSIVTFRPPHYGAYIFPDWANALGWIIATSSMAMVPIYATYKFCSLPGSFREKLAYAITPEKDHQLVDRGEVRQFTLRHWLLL
T1 sequence (Q63380 1-617): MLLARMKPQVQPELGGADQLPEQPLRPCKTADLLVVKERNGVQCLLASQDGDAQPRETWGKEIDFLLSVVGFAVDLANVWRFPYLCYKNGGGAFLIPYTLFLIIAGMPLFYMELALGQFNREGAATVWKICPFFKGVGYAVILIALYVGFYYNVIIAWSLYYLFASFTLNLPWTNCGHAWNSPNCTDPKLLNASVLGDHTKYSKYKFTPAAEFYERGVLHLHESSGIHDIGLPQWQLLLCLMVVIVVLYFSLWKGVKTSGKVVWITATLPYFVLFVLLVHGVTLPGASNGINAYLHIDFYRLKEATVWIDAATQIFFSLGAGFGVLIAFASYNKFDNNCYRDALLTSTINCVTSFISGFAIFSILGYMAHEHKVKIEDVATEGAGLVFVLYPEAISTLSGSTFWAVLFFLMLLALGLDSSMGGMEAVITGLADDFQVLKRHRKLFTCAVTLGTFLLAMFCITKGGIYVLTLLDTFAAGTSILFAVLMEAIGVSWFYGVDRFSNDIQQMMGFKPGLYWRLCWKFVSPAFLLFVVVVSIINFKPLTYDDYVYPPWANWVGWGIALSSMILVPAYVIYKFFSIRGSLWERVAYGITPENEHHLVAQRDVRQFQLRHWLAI
T2 sequence (P31652 whole entry): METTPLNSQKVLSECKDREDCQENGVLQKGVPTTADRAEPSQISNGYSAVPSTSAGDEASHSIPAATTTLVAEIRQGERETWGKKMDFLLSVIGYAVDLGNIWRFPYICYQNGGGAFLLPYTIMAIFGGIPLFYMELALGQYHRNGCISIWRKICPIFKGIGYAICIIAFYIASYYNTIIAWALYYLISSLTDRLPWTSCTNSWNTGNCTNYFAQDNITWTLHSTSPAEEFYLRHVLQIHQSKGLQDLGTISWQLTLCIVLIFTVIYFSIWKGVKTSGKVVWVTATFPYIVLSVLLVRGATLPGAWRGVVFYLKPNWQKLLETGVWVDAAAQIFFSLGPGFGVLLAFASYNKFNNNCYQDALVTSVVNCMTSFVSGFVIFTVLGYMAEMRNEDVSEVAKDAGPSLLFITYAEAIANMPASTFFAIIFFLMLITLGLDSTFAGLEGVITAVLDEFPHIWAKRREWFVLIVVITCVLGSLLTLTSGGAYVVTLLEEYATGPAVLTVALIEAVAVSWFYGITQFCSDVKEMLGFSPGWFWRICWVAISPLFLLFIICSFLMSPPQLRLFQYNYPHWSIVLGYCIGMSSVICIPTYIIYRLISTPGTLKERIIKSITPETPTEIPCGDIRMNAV

`CC(N)Cc1ccccc1` (centres unmarked) [Amphetamine]: the “NET release Emax %” value in data set [1] is listed as 92 ± 1%. The “SERT release Emax %” value in data set [2] is 97 ± 2%.

For the molecule `COC(=O)[C@H]1[C@@H](OC(=O)c2ccccc2)C[C@@H]2CC[C@H]1N2C` [Cocaine], the “Brain stimulation reward thresholds” value in data set [3] is listed as “this effect is mimicked by identical doses of cocaine”.

Turning to `CNC(C)Cc1ccc2c(c1)OCO2` (centres unmarked) [MDMA, 3,4-methylenedioxymethamphetamine], the IC50 in data set [4] came out at 1.01 ± 0.039 µM; in data set [5], 0.45 ± 0.03 µM; in data set [6], 0.125 ± 0.011 µM. Further, the EC50 in data set [7] turned out to be 0.042 ± 0.002 µM; in data set [8] it was 0.053 ± 0.007 µM; in data set [9], 0.039 ± 0.005 µM. Further, the Emax in data set [7] (read-out: DAT release Emax %) is 100%; in data set [8] (read-out: NET release Emax %), 95%; in [9] (read-out: SERT release Emax %), 103%.

Regarding `CCCC(C(=O)c1ccc2c(c1)OCO2)N1CCCC1` (centres unmarked) [MDPV, 3,4-methylenedioxypyrovalerone], the “Uptake blocking potency at DAT compared to cocaine (fold more potent)” value in data set [4] (more potent than cocaine) came to 50 fold. In data set [5] (more potent than cocaine), the “Uptake blocking potency at NET compared to cocaine (fold more potent)” value is 10 fold. Besides, the “Uptake blocking potency at SERT compared to cocaine (fold less potent)” value in [6] (less potent than cocaine) was 10 fold. In addition, the Self-administration by rats entry in data set [10] (i.v., 0.05, 0.1 or 0.2 mg/kg, ref Watterson et al., 2012) is “is readily self-administered by rats”. For the same molecule, the “Drug-taking behavior with extended access” value in data set [10] (rats allowed extended access to the drug, ref Watterson et al., 2012) is recorded as “escalation of drug-taking behavior is observed”.

Consider `CNC(C)C(=O)c1ccc(C)cc1` (centres unmarked) [Mephedrone, 4-methylmethcathinone], for which the “DAT release Emax %” value in [11] is 102 ± 2%. Also, the “NET release Emax %” value in data set [1] is 99 ± 4%. For the same molecule, the “SERT release Emax %” value in data set [2] is 101 ± 1%. Further, the “Extracellular levels of dopamine and serotonin in rat nucleus accumbens” value in data set [12] was “increases extracellular levels of dopamine and serotonin”. In [13], the “Locomotor stimulant effects in mice” value is given as “produces locomotor stimulant effects”. Further, the “Place preference in mice” value in data set [14] was “engenders a positive place preference”. For the same molecule, in data set [15], the “Place preference in rats” value was “engenders a positive place preference”. Also, the “Brain stimulation reward thresholds” value in data set [3] is reported as “lowers brain stimulation reward thresholds”. In addition, the Self-administration by rats entry in data set [10] (i.v., 0.24 mg/infusion, ref Hadlock et al. (2011)) is listed as “is self-administered by rats”. Further, the “Rate of clearance compared to MDMA” value in [16] was “much faster rate of clearance when compared to MDMA”.

In the case of `CNC(C)C(=O)c1ccc2c(c1)OCO2` (centres unmarked) [Methylone, 3,4-methylenedioxymethcathinone], the “SERT release Emax %” value in data set [2] is recorded as 98 ± 2%. In addition, in data set [12], the “Extracellular levels of dopamine and serotonin in rat nucleus accumbens” value was “increases extracellular levels of dopamine and serotonin”.
